Measurements as given in ChEMBL document CHEMBL1201862, “PubChem BioAssay data set” (2004).
Active and inactive are the calls of the source.

What was measured:
Phosphomannomutase 2 = Phosphomannomutase 2 (Homo sapiens, UniProt O15305); assay: Counter screen SAR assay for PMM2 inhibitors via a fluorescence intensity assay. [Related pubchem assays (depositor defined):AID1545, AID1574]
[1] = molecular target: T1, Mannose-6-phosphate isomerase (Homo sapiens, UniProt P34949); assay: phosphomannose isomerase inhibition – biochemical, fluorescence intensity, confirmation (AID 1535)
T1 sequence (P34949 whole entry): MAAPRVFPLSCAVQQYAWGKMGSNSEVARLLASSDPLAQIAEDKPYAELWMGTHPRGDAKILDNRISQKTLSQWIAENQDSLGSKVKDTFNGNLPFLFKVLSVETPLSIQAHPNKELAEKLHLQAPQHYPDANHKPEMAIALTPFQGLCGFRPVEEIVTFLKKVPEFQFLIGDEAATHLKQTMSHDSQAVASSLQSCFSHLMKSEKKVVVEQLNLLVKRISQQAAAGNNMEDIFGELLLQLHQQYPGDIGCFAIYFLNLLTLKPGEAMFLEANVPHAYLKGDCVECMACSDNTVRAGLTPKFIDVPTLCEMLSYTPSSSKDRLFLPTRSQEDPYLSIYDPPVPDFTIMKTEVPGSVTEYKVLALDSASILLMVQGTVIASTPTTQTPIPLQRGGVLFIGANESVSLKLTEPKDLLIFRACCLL

[2] = viability of PTEN-deleted HCT116 cells – cell-based, HCT116 PTEN knockout, dose response (AID 1047); type: functional;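 note: HCT116 colon tumor cells with PTEN knocked out; cells exposed to compound for 60 hours before readout; potency for loss of cell viability measured by luminescence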
Protein RecA = molecular target: T2, Protein RecA (Mycobacterium tuberculosis, UniProt P9WHJ3); assay: Fluorescence Cell-Free Homogeneous Dose Retest to Identify Inhibitors of RecA-Intein Splicing Activity. [Related pubchem assays (depositor defined):AID2097, AID2223, AID489010, AID492950]; type: functional
T2 sequence (P9WHJ3 whole entry): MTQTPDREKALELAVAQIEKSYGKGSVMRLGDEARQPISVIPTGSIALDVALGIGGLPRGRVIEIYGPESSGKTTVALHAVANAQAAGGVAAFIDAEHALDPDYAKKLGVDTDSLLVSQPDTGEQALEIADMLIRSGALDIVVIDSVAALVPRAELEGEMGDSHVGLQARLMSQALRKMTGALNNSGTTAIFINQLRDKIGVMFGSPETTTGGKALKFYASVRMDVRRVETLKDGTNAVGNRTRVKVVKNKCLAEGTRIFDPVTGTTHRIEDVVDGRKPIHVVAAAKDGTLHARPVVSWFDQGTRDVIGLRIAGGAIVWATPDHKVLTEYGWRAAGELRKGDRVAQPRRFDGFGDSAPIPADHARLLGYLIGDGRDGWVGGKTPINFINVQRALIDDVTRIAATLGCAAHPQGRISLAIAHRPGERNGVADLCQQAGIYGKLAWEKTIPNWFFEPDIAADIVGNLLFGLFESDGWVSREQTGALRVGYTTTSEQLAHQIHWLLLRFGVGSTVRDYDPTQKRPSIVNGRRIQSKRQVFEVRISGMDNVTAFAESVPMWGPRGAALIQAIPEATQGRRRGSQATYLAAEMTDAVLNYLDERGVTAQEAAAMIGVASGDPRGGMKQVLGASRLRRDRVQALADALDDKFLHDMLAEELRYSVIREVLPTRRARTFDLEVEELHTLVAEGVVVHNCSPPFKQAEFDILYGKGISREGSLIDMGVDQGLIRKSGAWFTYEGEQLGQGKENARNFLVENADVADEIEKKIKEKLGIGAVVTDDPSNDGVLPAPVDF

[3] = luciferase reporter signal suppression in cells – H4 neuroglioma cells, luminescence, dose response (AID 1990); type: functional, cell-based
[4] = alpha-synuclein stem-loop luciferase translation blockers – H4 neuroglioma cells, luminescence, confirmation (AID 1988); type: functional, cell-based
[5] = Luminescence Cell-Based Dose Response HTS to Identify Inhibitors of 5'UTR Stem-Loop Driven Prion Protein mRNA Translation in H4 Neuroglioblastoma Cells. [Related pubchem assays: 1827 (Project Summary), 1813 (Primary HTS)]; type: functional
INS1 = assay: INS-1E survival protection against cytokine death – cell-based, luminescence, retest, dose response (AID 449756); type: functional; settings: Rattus norvegicus;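 note: cell death triggered by IL-1 beta plus TNF-alpha plus IFN-gamma mixture; protective hits raise ATP signal compared with cytokine alone wells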
[6] = viability of HCT116 lacking mutant beta-catenin – cell-based, human colon tumor, dose response (AID 1045); type: functional;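 note: HCT116 colon tumor cells with beta catenin knocked out; cells exposed to compound for 60 hours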
[7] = molecular target: T3, Replicative DNA helicase DnaB (Mycobacterium tuberculosis, UniProt P9WMR3); assay: DnaB intein splicing inhibitors, dose response, biochemical, cell-free fluorescence (AID 449749); type: functional
T3 sequence (P9WMR3 whole entry): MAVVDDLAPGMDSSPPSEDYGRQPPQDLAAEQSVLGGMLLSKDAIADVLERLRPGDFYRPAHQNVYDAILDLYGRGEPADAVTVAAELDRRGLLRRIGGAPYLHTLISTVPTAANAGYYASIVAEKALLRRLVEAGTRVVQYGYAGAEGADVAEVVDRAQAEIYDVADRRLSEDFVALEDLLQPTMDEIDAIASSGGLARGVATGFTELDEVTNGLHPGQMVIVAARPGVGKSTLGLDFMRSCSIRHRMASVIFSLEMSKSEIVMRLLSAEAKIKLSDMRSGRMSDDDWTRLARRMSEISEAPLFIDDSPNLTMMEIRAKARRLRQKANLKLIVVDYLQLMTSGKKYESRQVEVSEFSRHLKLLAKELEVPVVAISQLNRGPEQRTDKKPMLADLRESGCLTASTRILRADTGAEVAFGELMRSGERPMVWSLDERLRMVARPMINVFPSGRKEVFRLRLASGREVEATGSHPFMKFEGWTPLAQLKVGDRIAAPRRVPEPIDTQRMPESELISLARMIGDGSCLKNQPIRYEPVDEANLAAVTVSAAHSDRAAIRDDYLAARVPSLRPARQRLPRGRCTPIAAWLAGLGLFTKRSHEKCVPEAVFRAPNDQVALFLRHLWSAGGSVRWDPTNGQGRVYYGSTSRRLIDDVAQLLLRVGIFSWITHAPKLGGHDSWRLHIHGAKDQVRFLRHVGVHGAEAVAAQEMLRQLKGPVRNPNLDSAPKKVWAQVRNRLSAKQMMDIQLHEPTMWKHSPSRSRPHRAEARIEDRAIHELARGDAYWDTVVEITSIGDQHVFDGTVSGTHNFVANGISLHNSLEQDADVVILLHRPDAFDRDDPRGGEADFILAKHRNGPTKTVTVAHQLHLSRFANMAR

[8] = Intein inhibitors as potential Tuberculosis drugs, a cytotoxicity screen. [Related pubchem assays (depositor defined):AID2221, AID2223, AID434968, AID435010, AID449749, AID449750, AID489010]; type: functional
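Throughout, for CC50: cells exposed to compound for 72 hours before luminescence readout.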

Phosphomannomutase 2, sequence (O15305 whole entry): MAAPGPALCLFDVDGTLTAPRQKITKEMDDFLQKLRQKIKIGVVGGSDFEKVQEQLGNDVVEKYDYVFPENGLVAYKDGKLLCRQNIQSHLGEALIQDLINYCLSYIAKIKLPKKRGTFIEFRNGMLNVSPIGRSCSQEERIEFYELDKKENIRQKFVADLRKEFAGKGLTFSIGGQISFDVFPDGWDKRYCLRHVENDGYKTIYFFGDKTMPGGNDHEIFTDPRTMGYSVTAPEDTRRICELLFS

In the case of `FC(F)(F)c1ccc(/N=c2\ssnc2Cl)cc1`, the IC50 (Phosphomannomutase 2) is reported as > 100 µM (inactive) and the IC50 [1] is reported as 32.7 µM (active).
For `CCOC(=O)C1CCN(C(=O)c2c(C)oc3c2C(=O)c2ccccc2C3=O)CC1`, the EC50 [2] was 3.87 µM (active), the EC50 (Protein RecA) was 0.645 µM (active) and the EC50 [3] was > 120 µM (not active). The EC50 [4] was 7.82 µM (active), the EC50 [5] was 18.3 µM (active) and the AC50 (INS1) was 6.25 µM (active). For the same compound, the EC50 [6] was 3.32 µM (active), the AC50 [7] was 2.06 µM (active) and the CC50 [8] was 13.7 µM (active).
